The values that follow come from US10689354B2, “Aminoazole derivative” (Teijin Pharma Limited, priority 2015, dated 2020).

The target of test [1] is T1, androgen receptor (AR-LBD) (Rattus norvegicus, UniProt P15207).
T1 construct: 5 μL of 2×AR-LBD/Fluoromone AL Red Complex contained in the kit; purchased Invitrogen
T1 sequence (P15207 651-882 limits assumed): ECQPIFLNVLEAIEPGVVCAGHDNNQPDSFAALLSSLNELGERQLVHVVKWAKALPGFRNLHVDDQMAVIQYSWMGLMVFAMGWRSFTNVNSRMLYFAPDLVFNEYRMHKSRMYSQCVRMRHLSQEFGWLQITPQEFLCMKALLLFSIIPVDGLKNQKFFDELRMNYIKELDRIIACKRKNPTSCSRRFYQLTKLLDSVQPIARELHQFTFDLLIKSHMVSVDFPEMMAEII
In words: Evaluation of androgen receptor affinity (PolarScreen Androgen Receptor Competitor Assay Kit, Red; fluorescence polarization). As to conditions: 22° C. for 5 hours, relative to binding rate of 1 μM DHT, read-out: AR affinity (pEC50) (converted). An outline of the steps: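 pEC50 values reflect tracer displacement from AR-LBD (Fluoromone AL Red complex) measured by fluorescence polarization after 5 h at 22° C, normalized to 1 μM DHT and fitted with a 4-parameter model.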
A general note: Fluorescence polarisation rises when a labelled molecule tumbles more slowly, as on binding a larger partner.

The target of a further test is T2, human androgen receptor (Homo sapiens, UniProt P10275).
T2 construct: expressed in transfected cells; host or cells: HEK293
T2 sequence (P10275 1-920): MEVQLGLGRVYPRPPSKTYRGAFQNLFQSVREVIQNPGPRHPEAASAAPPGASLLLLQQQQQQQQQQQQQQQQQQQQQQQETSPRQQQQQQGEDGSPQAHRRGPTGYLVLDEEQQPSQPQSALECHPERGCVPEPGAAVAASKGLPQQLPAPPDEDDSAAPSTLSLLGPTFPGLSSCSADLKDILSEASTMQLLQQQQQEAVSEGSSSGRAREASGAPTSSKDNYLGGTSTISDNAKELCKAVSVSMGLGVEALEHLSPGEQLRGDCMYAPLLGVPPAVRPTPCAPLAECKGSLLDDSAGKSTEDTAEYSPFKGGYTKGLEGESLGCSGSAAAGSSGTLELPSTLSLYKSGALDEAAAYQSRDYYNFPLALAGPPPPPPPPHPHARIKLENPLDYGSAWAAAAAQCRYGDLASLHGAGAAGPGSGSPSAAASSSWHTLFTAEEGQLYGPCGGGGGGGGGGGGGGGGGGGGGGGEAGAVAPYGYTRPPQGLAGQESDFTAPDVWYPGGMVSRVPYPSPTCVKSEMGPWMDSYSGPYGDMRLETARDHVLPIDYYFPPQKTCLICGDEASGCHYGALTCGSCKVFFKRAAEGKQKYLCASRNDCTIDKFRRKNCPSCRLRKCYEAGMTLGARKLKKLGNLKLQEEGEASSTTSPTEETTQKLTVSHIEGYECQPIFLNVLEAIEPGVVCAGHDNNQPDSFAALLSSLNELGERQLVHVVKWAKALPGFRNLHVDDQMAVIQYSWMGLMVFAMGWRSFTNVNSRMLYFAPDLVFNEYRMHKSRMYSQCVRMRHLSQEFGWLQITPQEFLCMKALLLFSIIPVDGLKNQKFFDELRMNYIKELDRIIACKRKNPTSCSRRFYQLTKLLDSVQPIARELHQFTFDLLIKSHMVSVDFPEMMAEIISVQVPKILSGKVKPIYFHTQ
Briefly: Reporter assay of an androgen receptor responsive sequence (luciferase, transiently transfected HEK293 cells). The conditions noted are these: 24 hours incubation, relative to activity of 100 nM DHT, read-out: AR transcriptive activity (pEC50) (converted). It is filed as cell-based. The procedure, abridged:
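HEK293 cells transiently transfected for 3 h with ARE-firefly luciferase, full-length human AR and TK-Renilla plasmids, then exposed to compound for 24 h at 37 °C in 5% charcoal-treated FBS/DMEM. Dual-Glo luminescence read; pEC50 from 4-parameter fit relative to 100 nM DHT.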
A general note: In a reporter assay the amount or activity of a reporter protein is the signal.

Turning to `CS(=O)(=O)NC(=O)c1nc(N(Cc2ccc(C(F)(F)F)nc2)c2ccc(C#N)cc2)sc1C1CC1` [Compound 659, 2-[4-cyano-N-[[6-(trifluoromethyl)-3-pyridyl]methyl]anilino]-5-cyclopropyl-N-methylsulfonyl-thiazole-4-carboxamide], the EC50 is 0.126 µM in test [1] and over 10 µM on human androgen receptor.
For the molecule `CS(=O)(=O)NC(=O)c1nc(N(Cc2ccccc2)c2ccc(C#N)cc2)sc1C1CC1` [Compound 660, 2-(N-benzyl-4-cyano-anilino)-5-cyclopropyl-N-methylsulfonyl-thiazole-4-carboxamide], the EC50 in test [1] was 0.0794 µM; on human androgen receptor, over 10 µM.
As for `CS(=O)(=O)NC(=O)c1nc(N(Cc2ccc(Cl)cc2)c2ccc(C#N)cc2)sc1C1CC1` [Compound 661, 2-[N-[(4-chlorophenyl)methyl]-4-cyano-anilino]-5-cyclopropyl-N-methylsulfonyl-thiazole-4-carboxamide], the EC50 is 0.0158 µM in test [1] and 0.501 µM at human androgen receptor.
For the molecule `CS(=O)(=O)NC(=O)c1nc(N(Cc2ccc(OC(F)F)cc2)c2ccc(C#N)cc2)sc1C1CC1` [Compound 662, 2-[4-cyano-N-[[4-(difluoromethoxy)phenyl]methyl]anilino]-5-cyclopropyl-N-methylsulfonyl-thiazole-4-carboxamide], the EC50 in test [1] is 0.02 µM; on human androgen receptor, 5.01 µM.
As to `COCCCS(=O)(=O)NC(=O)c1nc(N(Cc2ccc(C(F)(F)F)nc2)c2ccc(C#N)cc2)sc1C1CC1` [Compound 663, 2-[4-cyano-N-[[6-(trifluoromethyl)-3-pyridyl]methyl]anilino]-5-cyclopropyl-N-(3-methoxypropylsulfonyl)thiazole-4-carboxamide], the EC50 in test [1] is 0.251 µM; at human androgen receptor it was over 10 µM.
Consider `COCCCS(=O)(=O)NC(=O)c1nc(N(Cc2ccccc2)c2ccc(C#N)cc2)sc1C1CC1` [Compound 664, 2-(N-benzyl-4-cyano-anilino)-5-cyclopropyl-N-(3-methoxypropylsulfonyl)thiazole-4-carboxamide], for which the figures for the EC50 (in test [1]; on human androgen receptor) were 0.158 µM and over 10 µM, respectively.
Consider `COCCCS(=O)(=O)NC(=O)c1nc(N(Cc2ccc(Cl)cc2)c2ccc(C#N)cc2)sc1C1CC1` [Compound 665, 2-[N-[(4-chlorophenyl)methyl]-4-cyano-anilino]-5-cyclopropyl-N-(3-methoxypropylsulfonyl)thiazole-4-carboxamide], for which the EC50 in test [1] was 0.02 µM; at human androgen receptor, over 10 µM.
`COCCCS(=O)(=O)NC(=O)c1nc(N(Cc2ccc(OC(F)F)cc2)c2ccc(C#N)cc2)sc1C1CC1` [Compound 666, 2-[4-cyano-N-[[4-(difluoromethoxy)phenyl]methyl]anilino]-5-cyclopropyl-N-(3-methoxypropylsulfonyl)thiazole-4-carboxamide]: the EC50 is 0.0398 µM in test [1] and over 10 µM at human androgen receptor.
Consider `Cc1sc(N(CCc2cccc(Cl)c2)Cc2ccccc2)nc1C(=O)NS(C)(=O)=O` [Compound 671, 2-[benzyl-[2-(3-chlorophenyl)ethyl]amino]-5-methyl-N-methylsulfonyl-thiazole-4-carboxamide], for which the EC50 was 0.0501 µM in test [1] and 1.58 µM on human androgen receptor.
Taken in the same sequence, the figures for `Cc1sc(N(CCc2cccc(C#N)c2)Cc2ccccc2)nc1C(=O)NS(C)(=O)=O` [Compound 672, 2-[benzyl-[2-(3-cyanophenyl)ethyl]amino]-5-methyl-N-methylsulfonyl-thiazole-4-carboxamide] were 0.251 µM and 1.26 µM.
As for `Cc1sc(N(Cc2ccc(Cl)cc2)Cc2csc3cc(C(F)(F)F)ccc23)nc1C(=O)NS(C)(=O)=O` [Compound 677, 2-[(4-chlorophenyl)methyl-[[6-(trifluoromethyl)benzothiophen-3-yl]methyl]amino]-5-methyl-N-methylsulfonyl-thiazole-4-carboxamide], the figures for the EC50 (in test [1]; at human androgen receptor) were over 2 µM and over 10 µM, respectively.
Turning to `COc1ccc(CCN(Cc2ccccc2)c2nc(C(=O)NS(C)(=O)=O)c(C)s2)cc1` [Compound 678, 2-[benzyl-[2-(4-methoxyphenyl)ethyl]amino]-5-methyl-N-methylsulfonyl-thiazole-4-carboxamide], the EC50 in test [1] was 0.0501 µM; on human androgen receptor, 1.58 µM.
The corresponding values for `Cc1sc(N(CCC2CCCC2)Cc2ccccc2)nc1C(=O)NS(C)(=O)=O` [Compound 683, 2-[benzyl(2-cyclopentylethyl)amino]-5-methyl-N-methylsulfonyl-thiazole-4-carboxamide] are 0.1 µM and over 10 µM.
On to `Cc1sc(N(CCc2ccc(OC(F)(F)F)cc2)Cc2ccccc2)nc1C(=O)NS(C)(=O)=O` [Compound 684, 2-[benzyl-[2-[4-(trifluoromethoxy)phenyl]ethyl]amino]-5-methyl-N-methylsulfonyl-thiazole-4-carboxamide], for which the results for the EC50 (in test [1]; on human androgen receptor) were 0.0398 µM and 0.251 µM, respectively.
Take `Cc1sc(N(CCc2cccc(F)c2)Cc2ccccc2)nc1C(=O)NS(C)(=O)=O` [Compound 685, 2-[benzyl-[2-(3-fluorophenyl)ethyl]amino]-5-methyl-N-methylsulfonyl-thiazole-4-carboxamide]: the EC50 in test [1] is 0.0501 µM; at human androgen receptor it was 0.316 µM.
`Cc1sc(N(CCc2ccc(Cl)cc2)Cc2ccc(Cl)cc2)nc1C(=O)NS(C)(=O)=O` [Compound 692, 2-[2-(4-chlorophenyl)ethyl-[(4-chlorophenyl)methyl]amino]-5-methyl-N-methylsulfonyl-thiazole-4-carboxamide]: the EC50 in test [1] is 0.02 µM; on human androgen receptor, 0.0794 µM.
On to `CCS(=O)(=O)NC(=O)c1nc(N(CCc2ccc(Cl)cc2)Cc2ccc(Cl)cc2)sc1C` [Compound 693, 2-[2-(4-chlorophenyl)ethyl-[(4-chlorophenyl)methyl]amino]-N-ethylsulfonyl-5-methyl-thiazole-4-carboxamide], for which the EC50 in test [1] is 0.0316 µM; on human androgen receptor it was 0.2 µM.
Regarding `Cc1sc(N(CCc2ccc(Cl)cc2)Cc2ccc(Cl)cc2)nc1C(=O)NS(=O)(=O)C1CC1` [Compound 694, 2-[2-(4-chlorophenyl)ethyl-[(4-chlorophenyl)methyl]amino]-N-cyclopropylsulfonyl-5-methyl-thiazole-4-carboxamide], the EC50 is 0.0631 µM in test [1] and 3.16 µM at human androgen receptor.
On to `Cc1sc(N(CCc2ccc(Cl)cc2)Cc2ccc(Cl)cc2)nc1C(=O)NS(=O)(=O)Cc1cccnc1` [Compound 695, 2-[2-(4-chlorophenyl)ethyl-[(4-chlorophenyl)methyl]amino]-5-methyl-N-(3-pyridylmethylsulfonyl)thiazole-4-carboxamide], for which the values for the EC50 (in test [1]; on human androgen receptor) were 0.0251 µM and 0.0631 µM, respectively.
`Cc1sc(N(CCc2ccc(Cl)cc2)Cc2ccc(Cl)cc2)nc1C(=O)NS(=O)(=O)C(F)(F)F` [Compound 696, 2-[2-(4-chlorophenyl)ethyl-[(4-chlorophenyl)methyl]amino]-5-methyl-N-(trifluoromethylsulfonyl)thiazole-4-carboxamide]: the EC50 in test [1] is 0.2 µM; on human androgen receptor, 0.631 µM.
Taken in the same sequence, the figures for `Cc1sc(N(CCc2ccc(Cl)cc2)CC2CCCCC2)nc1C(=O)NS(C)(=O)=O` [Compound 697, 2-[2-(4-chlorophenyl)ethyl-(cyclohexylmethyl)amino]-5-methyl-N-methylsulfonyl-thiazole-4-carboxamide] were 0.251 µM and over 10 µM.
The corresponding values for `Cc1sc(N(CCc2ccc(Cl)cc2)CC2CCCCC2)nc1C(=O)NS(=O)(=O)Cc1cccnc1` [Compound 699, 2-[2-(4-chlorophenyl)ethyl-(cyclohexylmethyl)amino]-5-methyl-N-(3-pyridylmethylsulfonyl)thiazole-4-carboxamide] are 0.0631 µM and over 10 µM.
